The text below walks through data of US20220016200A1, “PHARMACEUTICAL COMPOSITION FOR THE TREATMENT OF CYSTIC FIBROSIS” (GALENUS G.H. AG, priority 2018, published 2022).

Test [1] concerns A. haemolyticus 1655843. The test can be described thus: Checkerboard colistin sulphate (CS) plus teicoplanin (TP), MIC/FIC and MBC/FBC. Format: cell-based, Acinetobacter haemolyticus. The settings on record: agent alone, CAMHB, 5*10^5 CFU/ml; for MIC: A. haemolyticus 1655843, 24 h. The procedure: Checkerboard analysis to determine minimal inhibitory concentration (MIC)/fractional inhibitory concentration (FIC) and minimal […] (MBC)/fractional […] (FBC) values of colistin sulphate (CS) plus teicoplanin (TP) for 6 Gram-negative strains with a bacterial load 5(1-10)*10^5 CFU/ml in a cation-adjusted Mueller-Hinton broth (CAMHB). • a. Antimicrobial stock solutions were prepared using sterile distilled water • b. CS was added along the ordinate; TP was added along the abscissa to 96 well, flat bottom, polystyrene panels with no treatment. Colistin alone was tested in triplicates. • c. Serial 2-fold dilutions starting with 640 μg/ml CS and 640 μg/ml TP were made; 15 μl volume of the serial dilutions were added for each agent to the appropriate wells; final volume at 30 μl • d. For each agent tested alone an additional 15 μl media was added to the well. 30 μl were added in control wells where none of the agent was tested. The negative control well contains 150 μl media without any additions • e. From an overnight bacterial culture in tryptic soy broth, 100 μL was added to 10 mL of fresh tryptic soy broth. This was then incubated at 37° C. for 1.5 hour at 180 rpm. • f. Bacteria in 120 μl CAMHB were added to each well (end concentration 5(1-10)*10^5 CFU/ml) • g. Plates were incubated at 37° C. in an ambient air incubator for 24 h • h. Turbidity at OD600 is determined with a plate photometer • i. By using a one-time inoculator 3 μl from each well of the 96-well plate were transferred to three blood agar plates. The plates were incubated over night at 37° C. in an ambient air incubator • j. MIC values are defined as lowest concentration which restricts bacterial growth to OD600 ≤0.1 • k. MBC values were determined by visual reading the lowest concentration which inhibits 99.9% of the growth of bacteria in the wells • l. Determination of the fractional inhibitory concentration (FIC) index and fractional bactericidal concentration (FBC) index and characterization of antimicrobial interactions was assessed […]
FIC calculation was carried out as: (MIC of drug A, tested in combination)/(MIC of drug A, tested alone)+(MIC of drug B, tested in combination)/(MIC of drug B, tested alone). FBC calculation was carried out just as well […]
Interactive categories were calculated from checkerboard analysis using MIC results from testing each agent alone and MIC results from the combination wells adjacent to the wells with growth in them […]
b. Indifference; FIC/FBC>0.5 to<4.0 c. Antagonism; FIC/FBC≥4.0 c. A. haemolyticus 1655843 (IHMA), colistin resistant

For test [2], the system named is A. nosocomialis strain (1204194 IHMA). The test can be described thus: Pneumonic mouse model, colistin susceptible strain. The test is classed as in vivo, Acinetobacter nosocomialis. The procedure: One colistin susceptible (MIC 1 mg/L) A. nosocomialis strain (1204194 IHMA) and one colistin resistant (MIC 4 mg/L) A. nosocomialis strain (1461911 IHMA) are used. […] Fresh brain heart infusion broth (Merck, Darmstadt, Germany) bacterial cultures, in an aerobic atmosphere in the logarithmic growth phase (4-5 hours) at 37° C., are adjusted to a concentration of 1.0×10^6 colony forming units (CFU)/mL, as verified by both spectrophotometry (OD600 0.01-0.02 nm) and colony counting.
A pneumonic mouse model was used. 8- to 12-week-old, specific-pathogen free, male or female BALB/c mice, with 25-35 g in weight, are used for the study Animals have free access to food and water except during experimental procedures. All studies are performed in accordance with the ethical guidelines for the care and use of laboratory animals, and the protocol is approved by an independent ethical commission.
For inoculation, fresh inocula are prepared for each experiment from frozen stocks of the two A. nosocomialis isolates (1204194 and 1461911 IHMA). Broth cultures of freshly plated A. nosocomialis bacteria are grown to logarithmic phase overnight to an absorbance of 0.3 at 630 nm and diluted to 10^7 CFU/ml in saline. Mice are anesthetized by intraperitoneal (i.p.) injection of 12.5 mg/kg (5 μl) xylazine and 80 mg/kg (25 μl) ketamine and then inoculated intranasally with 0.05 ml of this bacterial suspension. […]

Bridge positions count the residues as written; N and C are the ends. Square brackets hold non-standard residues; d marks the D form. Peptide text beside a SMILES is read from it. * marks the point of attachment. Heptanoyl(5-Me) = CCC(C)CCCC(=O)*; Dab = NCC[C@H](N)C(=O)O

As to `CCC(C)CCCC(=O)N[C@@H](CCN)C(=O)N[C@H](C(=O)N[C@@H](CCN)C(=O)N[C@H]1CCNC(=O)[C@H]([C@@H](C)O)NC(=O)[C@H](CCN)NC(=O)[C@H](CCN)NC(=O)[C@H](CC(C)C)NC(=O)[C@@H](CC(C)C)NC(=O)[C@H](CCN)NC1=O)[C@@H](C)O` (stereo partly drawn) [CS, colistin sulphate] ({Heptanoyl(5-Me)}-[Dab]T[Dab][Dab][Dab][dL]L[Dab][Dab]T; lactam 4-C), the figures for the MIC in test [1] and in test [1] (listed as colistin) were greater than 16 µg/mL and no less than 4 µg/mL, respectively. Besides, the MBC (as a rule, the smallest concentration meeting the test's criterion for killing) in test [1] (Acinetobacter haemolyticus, 1655843, A. haemolyticus, read-out: MBC) was greater than 16 µg/mL. The “mice that survive until day 3” value in test [2] (BALB/c mice, 3 per group, colistin susceptible strain, one intramuscular dose 24 hours after inoculation, combination groups stated together for both strains (6 mice)) is given as 2/3. The “numbers of A. nosocomialis in the lung tissue” value in test [2] (day 3, confirmed by qRT-PCR, two surviving monotherapy mice compared with all mice treated with colistin sulphate and teicoplanin or colistin sulphate and fusidic acid) is “significantly higher numbers”.
